Laboratory results from ChEMBL document CHEMBL1201862, “PubChem BioAssay data set” (2004).
Counter-ions that a name gives are not always drawn. Activity calls are given as the source filed them.

Legend:
[1] = molecular target: Cytochrome P450 3A4 (Homo sapiens, UniProt P08684); settings: Potency;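 further: confirmatory qHTS run detecting inhibitors and substrates of CYP3A4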
[2] = molecular target: Eukaryotic translation initiation factor 4E (Mus musculus, UniProt P63073); assay: eIF4E–eIF4G protein interaction inhibitors, dose response, biochemical, TR-FRET (AID 855); format: functional;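 further: potency for disrupting eIF4E binding to eIF4GI seen as loss of FRET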
[3] = molecular target: T1, Calpain-2 catalytic subunit (Sus scrofa, UniProt P43367); assay: pig calpain II inhibitor potency, dose response, biochemical, fluorogenic peptide substrate (AID 1420); format: functional
T1 sequence (P43367 whole entry): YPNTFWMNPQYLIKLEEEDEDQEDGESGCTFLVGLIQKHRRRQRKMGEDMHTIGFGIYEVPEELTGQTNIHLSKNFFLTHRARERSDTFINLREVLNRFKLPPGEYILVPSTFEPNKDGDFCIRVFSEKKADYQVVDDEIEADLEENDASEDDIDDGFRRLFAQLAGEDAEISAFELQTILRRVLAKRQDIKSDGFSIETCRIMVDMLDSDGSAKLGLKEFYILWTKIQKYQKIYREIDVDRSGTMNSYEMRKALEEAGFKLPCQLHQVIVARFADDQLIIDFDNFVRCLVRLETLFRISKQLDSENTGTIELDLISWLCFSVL

[4] = THP-1 cell cytotoxicity, dose response, cytotoxicity control for non-replicating M. tuberculosis project (AID 489025); format: functional
[5] = cells; format: functional
[6] = Luminescence Cell-Based Dose Retest to Confirm Inhibitors of Cancer Stem Cells. [Related pubchem assays (depositor defined):AID2717, AID2721]; format: functional; settings: Homo sapiens
[7] = molecular target: T2, Endoribonuclease toxin MazF (Escherichia coli K-12, UniProt P0AE70); assay: MazF toxin RNase activators, dose response, biochemical, fluorescence, single-stranded RNA substrate, uHTS hits (AID 588481); format: functional
T2 sequence (P0AE70 whole entry): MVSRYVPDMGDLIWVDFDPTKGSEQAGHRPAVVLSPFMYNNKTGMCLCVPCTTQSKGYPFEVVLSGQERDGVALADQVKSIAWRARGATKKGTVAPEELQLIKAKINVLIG

[8] = molecular target: T2, Endoribonuclease toxin MazF; assay: fluorescent RNA oligo signal without MazF, dose response, counter-screen for MazEF activator project, biochemical, fluorescence, single-stranded RNase substrate (AID 588502); format: functional
[9] = HEp-2 cell cytotoxicity, dose response, cytotoxicity control for RSV inhibitor project, HTS (AID 2410); format: functional; settings: human respiratory syncytial virus
[10] = cells
[11] = cytotoxicity in HPDE-C7 cells, cell-based, fluorescence, HTS (AID 430); format: functional; settings: Homo sapiens
[12] = cytotoxicity in KRAS-transformed pancreatic duct cells, primary screen, cell-based, fluorescence, HTS (AID 431); format: functional; settings: Homo sapiens;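 further: cell line used: HPDE-C7K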
[13] = molecular target: T3, Polyadenylate-binding protein 1 (Homo sapiens, UniProt P11940); assay: PABP1 MLLE–PAM2 interaction inhibitors, dose response, miRNA deadenylation inhibitor project, biochemical, fluorescence polarization, Cy5-PAM2 peptide, secondary (AID 602260); format: functional; settings: read-out: IC50_Mean
[14] = molecular target: T3, Polyadenylate-binding protein 1; assay: PABP1 MLLE–PAM2 binding inhibitor potency, dose response, biochemical, fluorescence polarization, FITC-PAM2 peptide (AID 602259); format: functional; settings: read-out: IC50_Mean
[15] = molecular target: T4, DNA repair protein RAD52 homolog (Homo sapiens, UniProt P43351); format: functional, biochemical
T4 sequence (P43351 whole entry): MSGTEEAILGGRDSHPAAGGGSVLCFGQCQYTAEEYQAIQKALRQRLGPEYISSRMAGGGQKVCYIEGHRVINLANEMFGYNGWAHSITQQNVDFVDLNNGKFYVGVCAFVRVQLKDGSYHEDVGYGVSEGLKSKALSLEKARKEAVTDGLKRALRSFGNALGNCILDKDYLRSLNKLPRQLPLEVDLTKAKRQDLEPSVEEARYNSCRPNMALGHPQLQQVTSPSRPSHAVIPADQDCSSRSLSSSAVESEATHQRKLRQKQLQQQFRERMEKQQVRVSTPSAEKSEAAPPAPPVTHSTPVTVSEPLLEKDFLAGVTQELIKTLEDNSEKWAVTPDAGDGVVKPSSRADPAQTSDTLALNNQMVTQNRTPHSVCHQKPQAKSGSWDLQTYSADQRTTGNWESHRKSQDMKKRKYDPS

[16] = tested on: P388/ADR; assay: cells; format: functional; settings: Mus musculus
[17] = tested on: SN12K1; assay: cells; format: functional; settings: Homo sapiens
[18] = tested on: P388; assay: cells; format: functional; settings: Mus musculus
[19] = molecular target: T5, Carboxy-terminal domain RNA polymerase II polypeptide A small phosphatase 1 (Homo sapiens, UniProt Q9GZU7); assay: inhibitors of CTDSP1, concentration-response testing, biochemical assay, absorbance-based, actives from ultra-high-throughput screening (AID 540297); format: functional
T5 sequence (Q9GZU7 whole entry): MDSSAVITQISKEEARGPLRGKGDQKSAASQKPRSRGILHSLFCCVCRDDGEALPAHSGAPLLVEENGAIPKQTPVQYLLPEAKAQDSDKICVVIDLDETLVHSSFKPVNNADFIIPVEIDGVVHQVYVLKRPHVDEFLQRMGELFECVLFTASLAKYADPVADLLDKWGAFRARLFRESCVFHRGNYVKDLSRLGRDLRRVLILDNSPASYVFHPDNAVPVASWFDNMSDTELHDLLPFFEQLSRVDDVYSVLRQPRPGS

[20] = growth suppression of PTEN-null colon cells, dose response, cell-based, HCT116 PTEN knockout (AID 1047); format: functional;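 further: HCT116 colon tumor cells with PTEN knocked out; cells exposed to compound for 60 hours before readout; potency for loss of cell viability measured by luminescence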
[21] = growth suppression of beta-catenin-knockout colon cells, dose response, cell-based, HCT116, human colon tumor (AID 1045); format: functional;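 further: HCT116 colon tumor cells with beta catenin knocked out; cells exposed to compound for 60 hours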
[22] = tested on: Vero; assay: cells; format: functional; settings: Chlorocebus sabaeus
[23] = molecular target: Cytochrome P450 2D6 (Homo sapiens, UniProt P10635);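 further: CYP2D6 member of a cytochrome P450 panel assay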
[24] = Shn3 3'UTR reporter inhibitors, dose response, cell-based, Clone20 osteoblasts, firefly luciferase, cherry-picked (AID 624132); format: functional;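 further: firefly luciferase luminescence from reporter carrying the Shn3 3'UTR in osteoblasts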
[25] = control 3'UTR Renilla luciferase suppression, dose response, counter-screen for Shn3 inhibitor project, cell-based, Clone20-Shn3RL, cherry-picked (AID 624133); format: functional
[26] = molecular target: T6, Ubiquitin-conjugating enzyme E2 N (Homo sapiens, UniProt P61088); format: functional;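 further: Dose-response confirmation in a TR-FRET assay detecting UBC13-driven polyubiquitin chain formation, inhibition measured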
T6 sequence (P61088 whole entry): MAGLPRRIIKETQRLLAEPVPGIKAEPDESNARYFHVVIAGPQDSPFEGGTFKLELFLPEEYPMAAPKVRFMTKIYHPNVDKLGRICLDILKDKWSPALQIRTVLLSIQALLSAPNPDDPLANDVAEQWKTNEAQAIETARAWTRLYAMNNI

[27] = HepG2 cell cytotoxicity, dose response, cytotoxicity control for Shn3 inhibitor project, CellTiter-Glo, cherry-picked (AID 624134); format: functional, cell-based

Sequence of Cytochrome P450 3A4 (P08684 whole entry): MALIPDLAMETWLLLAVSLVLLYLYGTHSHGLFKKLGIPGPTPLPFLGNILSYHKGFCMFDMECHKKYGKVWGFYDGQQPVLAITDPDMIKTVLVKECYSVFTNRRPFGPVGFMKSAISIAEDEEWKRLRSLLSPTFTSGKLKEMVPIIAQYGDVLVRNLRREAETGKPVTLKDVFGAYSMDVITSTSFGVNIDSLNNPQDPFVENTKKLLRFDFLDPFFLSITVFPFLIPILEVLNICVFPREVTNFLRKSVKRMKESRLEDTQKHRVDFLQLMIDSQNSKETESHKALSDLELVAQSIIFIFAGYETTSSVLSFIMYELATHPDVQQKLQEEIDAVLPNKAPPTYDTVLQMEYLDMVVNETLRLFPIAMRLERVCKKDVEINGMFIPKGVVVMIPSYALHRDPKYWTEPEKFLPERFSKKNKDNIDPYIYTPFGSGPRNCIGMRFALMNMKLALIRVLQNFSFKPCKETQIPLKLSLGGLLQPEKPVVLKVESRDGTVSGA
Sequence of Eukaryotic translation initiation factor 4E (P63073 whole entry): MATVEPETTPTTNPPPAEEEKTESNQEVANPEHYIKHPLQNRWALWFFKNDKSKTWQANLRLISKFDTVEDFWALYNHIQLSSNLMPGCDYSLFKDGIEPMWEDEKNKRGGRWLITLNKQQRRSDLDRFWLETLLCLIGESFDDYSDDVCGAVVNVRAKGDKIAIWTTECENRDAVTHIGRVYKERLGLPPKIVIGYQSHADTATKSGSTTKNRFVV
T3 sequence (P11940 whole entry): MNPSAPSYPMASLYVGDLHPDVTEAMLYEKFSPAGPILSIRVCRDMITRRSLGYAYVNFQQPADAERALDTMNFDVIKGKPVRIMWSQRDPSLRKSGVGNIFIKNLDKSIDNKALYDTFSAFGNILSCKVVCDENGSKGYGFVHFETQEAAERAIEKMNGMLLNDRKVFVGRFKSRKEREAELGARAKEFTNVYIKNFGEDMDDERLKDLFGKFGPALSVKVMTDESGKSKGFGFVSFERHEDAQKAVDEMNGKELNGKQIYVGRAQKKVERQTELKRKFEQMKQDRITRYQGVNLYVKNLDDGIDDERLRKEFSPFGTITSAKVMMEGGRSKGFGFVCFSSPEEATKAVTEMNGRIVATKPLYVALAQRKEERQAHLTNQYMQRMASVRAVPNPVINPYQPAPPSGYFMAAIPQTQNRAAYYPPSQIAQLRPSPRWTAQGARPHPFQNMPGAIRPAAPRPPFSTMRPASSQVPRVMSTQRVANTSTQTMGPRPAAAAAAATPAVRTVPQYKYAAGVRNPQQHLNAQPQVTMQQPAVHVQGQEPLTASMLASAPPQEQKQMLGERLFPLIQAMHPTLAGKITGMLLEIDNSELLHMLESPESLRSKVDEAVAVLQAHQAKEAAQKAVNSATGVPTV
Sequence of Cytochrome P450 2D6 (P10635 whole entry): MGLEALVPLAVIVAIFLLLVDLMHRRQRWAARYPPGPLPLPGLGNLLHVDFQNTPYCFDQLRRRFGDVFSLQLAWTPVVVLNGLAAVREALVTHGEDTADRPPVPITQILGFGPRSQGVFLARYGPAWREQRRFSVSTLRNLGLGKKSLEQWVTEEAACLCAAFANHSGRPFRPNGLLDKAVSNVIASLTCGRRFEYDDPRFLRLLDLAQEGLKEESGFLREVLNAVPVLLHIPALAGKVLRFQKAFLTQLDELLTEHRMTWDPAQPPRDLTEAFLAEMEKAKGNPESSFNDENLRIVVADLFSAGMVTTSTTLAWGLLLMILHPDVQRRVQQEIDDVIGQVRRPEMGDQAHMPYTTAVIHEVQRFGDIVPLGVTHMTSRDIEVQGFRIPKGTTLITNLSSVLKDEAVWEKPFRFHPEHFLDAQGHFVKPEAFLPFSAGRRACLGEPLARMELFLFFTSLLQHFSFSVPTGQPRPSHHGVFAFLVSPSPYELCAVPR

In the case of COc1cccc(N)c1, the AC50 [1] is reported as 31.6 µM (inconclusive).
For CCC(=O)NC(=S)Nc1ccc(NC(=O)c2ccc([N+](=O)[O-])cc2)cc1, the IC50 [2] was > 64 µM (inactive).
In the case of COc1ccccc1N1CCN(S(=O)(=O)Cc2ccccc2Cl)CC1, the IC50 [2] is reported as > 64 µM (inactive).
With CC(C)Cn1c(N)c(C(=O)COC(=O)c2cnc(Cl)c(Cl)c2)c(=O)n(C)c1=O the IC50 [3] was 15.3 µM (not active), the CC50 [4] was 25.7 µM (active) and the IC50 [5] was 13.2 µM (active).
With O=C(Nc1ccc(CN2CCOCC2)cc1)c1ccc(-c2ccc(Cl)cc2Cl)o1 the AC50 [6] was 5.22 µM (active) and the IC50 [2] was 50 µM (inactive).
In the case of Cn1c(=O)cc(N)n(Cc2ccccc2)c1=O, the AC50 [1] is reported as 39.8 µM (inconclusive).
With C#CCN1C(=O)S/C(=C\c2cc3c(cc2OC)OCO3)C1=O the EC50 [7] was 12.5 µM (active) and the EC50 [8] was 17.1 µM (active).
With Cc1ccc(-c2ccc(/C=N/O)o2)cc1[N+](=O)[O-] the CC50 [9] was 36.3 µM (active) and the IC50 [10] was 33.5 µM (active).
With Cc1cccc2sc(NC(=O)CN(C)S(=O)(=O)c3ccc(Br)s3)nc12 the EC50 [11] was 12.2 µM (active) and the EC50 [12] was 12.2 µM (active).
In the case of NCCc1cc(O)c(O)cc1O [OXIDOPAMINE HYDROCHLORIDE], the IC50 [13] is reported as > 66 µM (inactive), the IC50 [14] is reported as > 66 µM (inactive) and the AC50 [15] is reported as 4.12 µM (active).
With CCN(CC)CCCCn1c(-c2ccccc2)nc2c(N3CCOCC3)nc(C)nc21 the AC50 [1] was 7.94 µM (inconclusive).
With CSc1nc(SC)c2cnn(CC3CO3)c2n1 (stereo not given) the GI50 [16] was 11.5 µM (inactive), the GI50 [17] was 8.2 µM (inactive) and the GI50 [18] was 15.6 µM (inactive).
For Cc1ccc(S(=O)(=O)N2CCN(C(=O)/C=C/c3ccco3)CC2)cc1, the IC50 [19] was 10.2 µM (active).
For CC1(C)Cc2c(C#N)c(N3CCN(C(=O)c4ccco4)CC3)nc(Cc3ccccc3)c2CO1, the EC50 [11] was 17.2 µM (active), the EC50 [12] was 11.8 µM (active) and the EC50 [20] was 23.3 µM (active). The EC50 [21] was 26 µM (active).
For CCCNC(=O)N1c2ccccc2Sc2ccccc21, the CC50 [22] was > 25 µM (active).
With Cc1nnc(SCC2=C(C(=O)O)N3C(=O)C(NC(=O)Cn4nc(C(F)F)cc4C)C3SC2)s1 (stereo not given) the IC50 [19] was 7.83 µM (active).
For CCOC(=O)C(C)Sc1ccc2nnc(-c3ccc(F)cc3)n2n1 (stereo not given), the IC50 [2] was > 64 µM (inactive).
With CN(Cc1cnc2nc(N)nc(N)c2n1)c1ccc(C(=O)NC(CCC(=O)O)C(=O)O)c2ccccc12 (stereo not given) the GI50 [16] was < 0.01 µM (active), the GI50 [17] was 0.01 µM (active) and the GI50 [18] was < 0.01 µM (active).
With COc1cccc2c1C(=O)c1c(O)c3c(c(O)c1C2=O)CC(O)(C(=O)CO)CC3OC1CC(N)C(I)C(C)O1 (stereo not given) the GI50 [16] was 0.547 µM (active) and the GI50 [18] was 0.0612 µM (active).
With Cc1c2cc[n+](CCN3CCCCC3)cc2c(C)c2c1[nH]c1ccc(O)cc12 the GI50 [16] was 1.37 µM (inactive), the GI50 [17] was 1.5 µM (inactive) and the GI50 [18] was 0.0111 µM (active). For the same compound, the AC50 [23] was 5.01 µM (inconclusive).
In the case of CCC(=O)c1cn(CC(=O)Nc2ccccc2Cl)c2ccccc12, the EC50 [7] is reported as > 99 µM (inactive), the EC50 [8] is reported as > 99 µM (inactive) and the AC50 [24] is reported as < 0.26 µM (active). For the same compound, the AC50 [25] was 6.05 µM (active).
With O=c1oc(/C=C/c2ccc([N+](=O)[O-])s2)nc2ccccc12 the IC50 [5] was 10.7 µM (active), the EC50 [7] was > 99 µM (inactive) and the EC50 [8] was > 99 µM (inactive).
For Nc1c(S(=O)(=O)O)cc2cc(S(=O)(=O)O)ccc2c1/N=N/c1ccc(-c2ccc(/N=N/c3c(N)c(S(=O)(=O)O)cc4cc(S(=O)(=O)O)ccc34)c(S(=O)(=O)O)c2)cc1, the GI50 [16] was > 100 µM (inactive), the GI50 [17] was > 100 µM (inactive) and the GI50 [18] was > 79.6 µM (inactive).
With COc1cc2cc3c4cc(OC)c(OC)cc4cc[n+]3cc2cc1OC the GI50 [16] was 12.6 µM (inactive), the GI50 [17] was > 61.9 µM (inactive) and the GI50 [18] was 0.881 µM (active).
In the case of O=[N+]([O-])c1ccc(Cl)c(S(=O)(=O)Nc2cccc(-c3ccc(N4CCOCC4)nn3)c2)c1, the CC50 [9] is reported as 37.3 µM (active) and the IC50 [10] is reported as 32.5 µM (active).
In the case of O=C(Nc1cccc(F)c1)c1cc(S(=O)(=O)NCCC2=CCCCC2)ccc1F, the IC50 [26] is reported as > 20 µM (inactive), the AC50 [24] is reported as 4.16 µM (active) and the AC50 [27] is reported as 39.8 µM (active). For the same compound, the AC50 [25] was 13.9 µM (active).
In the case of CCC1=C2CC[C@H]3C(=O)N(CC(=O)OC)C(=O)[C@H]3[C@H]2[C@@]2(C)/C(=N/CC(=O)OC)OC(=O)N2C1=O, the AC50 [1] is reported as 25.1 µM (inconclusive).
For c1ccc(C(c2ccccc2)[P+](c2ccccc2)(c2ccccc2)c2ccccc2)cc1, the GI50 [16] was 12.4 µM (inactive), the GI50 [17] was 0.345 µM (active) and the GI50 [18] was 0.382 µM (active).
With COC(=O)CCCCCN1C(=O)NC(c2ccccc2)C(C(=O)OCc2ccccc2)=C1C (stereo not given) the AC50 [1] was 10 µM (inconclusive).
With Cc1cc(-c2ccc(C(C)C)c(S(=O)(=O)NCc3ccco3)c2)on1 the CC50 [22] was 6.78 µM (active).
For CNc1[nH]c(=O)[nH]c(=O)c1N=Nc1cc(Cl)ccc1Cl, the IC50 [19] was 11.6 µM (active).
For O=C1NC(=S)NC(=O)C1=Cc1ccc(OCC(=O)N2CCCC2)cc1, the IC50 [19] was 9 µM (active).
With Cc1c(CCC(=O)O)c(=O)oc2cc(OCc3ccc(Br)cc3)ccc12 the IC50 [19] was 7.23 µM (active).
With CN1CCN(CC(O)(c2ccc(Cl)cc2)c2ccc(Cl)cc2)CC1 the CC50 [22] was > 25 µM (active).
In the case of O=C(CCCOc1ccc(Cl)cc1Cl)Nc1ccccc1C(=O)O, the CC50 [9] is reported as 9.45 µM (active) and the IC50 [10] is reported as 5.66 µM (active).
